The record followed here is paper PMC6005341, “Identification of “sarsasapogenin-aglyconed” timosaponins as novel Aβ-lowering modulators of amyloid precursor protein processing” (Chemical Science, 2016).

What all share (type): cell-based
Assay [1] has as its system Aβ42 production in N2A-APPswe cells. Kind of assay: Aβ42 in conditioned medium of N2A-APPswe cells by ELISA, 18 h treatment. The following applies: for IC50: mean ± standard deviation, n ≥ 3. An excerpt: Sigma-Aldrich Chemical Co. unless otherwise specified. SSG (1) was purchased from Wako Pure Chemical Industries, Ltd. Diosgenin (6), Dioscin (9), Polyphyllin D (10), Timosaponin BI (22) and Timosaponin BII (23) were purchased from Chengdu Must Bio-Technology Co.
Ltd. Yamogenin (7) was bought from Ambinter c/o Greenpharma while Smilagenin (24) was bought from Steraloids Inc. Substances dissolved in DMSO as stock solutions. Cell culture medium constituents were purchased from Life Technologies, Inc.
Cell culture: Neuro-2A cells expressing Swedish mutants of APP (N2A-APPswe provided by Prof. Yifan Han, The Hong Kong Polytechnic University)1 was cultured in minimal essential medium with 2 mM glutamine, 2 mM pyruvate and 10% fetal bovine serum. […]
(§1) Aβ ELISA: Aβ concentrations in conditioned medium were assayed using ELISA kits for […]
In general terms: ELISA stands for enzyme-linked immunosorbent assay.

Assay [2] relates to Aβ40 and Aβ38 in N2A-APPswe cells. Briefly: Aβ40 and Aβ38 in conditioned medium of N2A-APPswe cells by ELISA. The following applies: compared with Aβ42. Here is the method: as §1
The test system of assay [3] is Neuro-2A cells. Kind of assay: Neurite outgrowth, type III β-tubulin immunostaining. The following applies: at concentrations that lower Aβ production, 18 h. Here is the method:
Immunofluorescence examination of neurite outgrowth: Neuro-2A cells were seeded at 1×105 per glass bottom dishes. After treatment, cells were fixed with 4% paraformaldyde for 10 min, permeabilized with 0.1% Triton X-100, and then blocked with 1% BSA in PBS.
The cells were incubated with monoclonal antibody raised against type III β-tubulin (Sigma) for 1 h followed by Alexa488 conjugated secondary antibody. Neurite morphology was examined under fluorescence microscope. […]

The mark [4] stands for this setting: N2a-APPswe, read-out: IC50 in lowering Aβ42 production, N2A-APPswe cells.
[5] abbreviates: N2A-APPswe cells, read-out: IC50 in lowering Aβ42 production.

Where two headings read alike, the source gives them in different places.

A word on the IC50: it is the concentration that gives 50% inhibition. As for `C[C@@H]1CC[C@@]2(OC1)O[C@H]1C[C@H]3[C@@H]4C[C@H](O)[C@H]5C[C@@H](O)CC[C@]5(C)[C@H]4CC[C@]3(C)[C@H]1[C@@H]2C` [5α-H, 6α-OH diosgenin (15), 5α-H, 6α-OH diosgenin], the half-inhibitory concentration (IC50) in assay [1] (setting [4]) was over 100 µM.

For `C[C@H]1CC[C@@]2(OC1)O[C@H]1C[C@H]3[C@@H]4C[C@H](O)[C@H]5C[C@@H](O)CC[C@]5(C)[C@H]4CC[C@]3(C)[C@H]1[C@@H]2C` [5α-H, 6α-OH yamogenin (17), 5α-H, 6α-OH yamogenin], in assay [1] (setting [4]), the IC50 is over 100 µM.

Turning to `C[C@@H]1CC[C@@]2(OC1)O[C@H]1C[C@H]3[C@@H]4C[C@@H](O)[C@@H]5C[C@@H](O)CC[C@]5(C)[C@H]4CC[C@]3(C)[C@H]1[C@@H]2C` [5β-H, 6β-OH diosgenin (16), 5β-H, 6β-OH diosgenin], the “Aβ42-lowering effect (in words)” value in assay [1] (N2A-APPswe cells) is “ineffective”. Further, the IC50 in assay [1] (setting [4]) was over 100 µM.

As for `C[C@H]1CC[C@@]2(OC1)O[C@H]1C[C@H]3[C@@H]4C[C@@H](O)[C@@H]5C[C@@H](O)CC[C@]5(C)[C@H]4CC[C@]3(C)[C@H]1[C@@H]2C` [5β-H, 6β-OH yamogenin (18), 5β-H, 6β-OH yamogenin], in assay [1] (setting [4]), the IC50 stood at 45 ± 4 µM.

In the case of `C[C@H]1CC[C@@]2(OC1)O[C@H]1C[C@H]3[C@@H]4CC[C@@H]5C[C@@H](O[C@@H]6O[C@H](CO)[C@@H](O)[C@H](O)[C@H]6O)CC[C@]5(C)[C@H]4CC[C@]3(C)[C@H]1[C@@H]2C` [AA (5), Asparagoside A], the “effect on Aβ40 and Aβ38” value in assay [2] is “much smaller effect”. The “Aβ42-lowering effect (in words)” value in assay [1] (N2A-APPswe cells) is “effectively lowered”. In addition, in assay [1] (setting [4]), the IC50 is about 6 µM.

In the case of `C[C@@H]1CC[C@@]2(OC1)O[C@H]1C[C@H]3[C@@H]4CC=C5C[C@@H](O[C@@H]6O[C@H](CO)[C@H](O)[C@H](O)[C@H]6O)CC[C@]5(C)[C@H]4CC[C@]3(C)[C@H]1[C@@H]2C` [Capsicoside A3 (8), capsicoside A3], the IC50 in assay [1] (setting [5]) is over 100 µM.

Regarding `C[C@@H]1CC[C@@]2(OC1)O[C@H]1C[C@H]3[C@@H]4CC=C5C[C@@H](O[C@@H]6O[C@H](CO)[C@@H](O[C@@H]7O[C@@H](C)[C@H](O)[C@@H](O)[C@H]7O)[C@H](O)[C@H]6O[C@@H]6O[C@@H](C)[C@H](O)[C@@H](O)[C@H]6O)CC[C@]5(C)[C@H]4CC[C@]3(C)[C@H]1[C@@H]2C` [Compound 9, dioscin], the “Aβ42-lowering effect (in words)” value in assay [1] (N2A-APPswe cells) was “insignificant Aβ42-lowering effects”.

For `C[C@@H]1CC[C@@]2(OC1)O[C@H]1C[C@H]3[C@@H]4CC[C@H]5C[C@@H](O[C@@H]6O[C@H](CO)[C@@H](O[C@@H]7O[C@@H](C)[C@H](O)[C@@H](O)[C@H]7O)[C@H](O)[C@H]6O[C@@H]6O[C@@H](C)[C@H](O)[C@@H](O)[C@H]6O)CC[C@]5(C)[C@H]4CC[C@]3(C)[C@H]1[C@@H]2C` [Compound 11, dihydrodioscin], the “Aβ42-lowering effect (in words)” value in assay [1] (N2A-APPswe cells) is on record as “insignificant Aβ42-lowering effects”.

`C[C@H](CO)CC[C@H]1O[C@H]2C[C@H]3[C@@H]4CC[C@@H]5C[C@@H](O)CC[C@]5(C)[C@H]4CC[C@]3(C)[C@H]2[C@@H]1C` [Dihydrosarsasapogenin (21), dihydrosarsasapogenin]: the IC50 in assay [1] (setting [4]) was over 100 µM.

Take `C[C@@H]1CC[C@@]2(OC1)O[C@H]1C[C@H]3[C@@H]4CC=C5C[C@@H](O)CC[C@]5(C)[C@H]4CC[C@]3(C)[C@H]1[C@@H]2C` [Diosgenin (6), diosgenin]: in assay [3], the neurite outgrowth result is reported as “not shared”. In assay [1] (N2A-APPswe cells), the “Aβ42-lowering effect (in words)” value was “no effect”. Also, the IC50 in assay [1] (setting [5]) is over 100 µM.

With `C[C@H]1CC[C@@]2(OC1)O[C@H]1C[C@H]3[C@@H]4CC[C@@H]5C[C@H](O)CC[C@]5(C)[C@H]4CC[C@]3(C)[C@H]1[C@@H]2C` [Episarsasapogenin (20), episarsasapogenin], the neurite outgrowth entry in assay [3] is “not shared”. In addition, the “Aβ42-lowering effect (in words)” value in assay [1] (N2A-APPswe cells) was “inactive”. In addition, the half-maximal inhibitory concentration (IC50) in assay [1] (setting [4]) was over 100 µM.

Consider `CC(C)[C@@H](C)/C=C/[C@@H](C)[C@H]1CC[C@H]2C3=CC=C4C[C@@H](O)CC[C@]4(C)[C@H]3CC[C@]12C` [Ergosterol, reference compound], for which the IC50 in assay [1] (setting [5]) is over 100 µM.

As for `CC1CCC2(OC1)OC1CC3C4CCC5CC(OCC(=O)O)CCC5(C)C4CCC3(C)C1C2C` (stereo not drawn) [Ethereal SSG (29), ethereal SSG], the IC50 in assay [1] (setting [4]) turned out to be 27 ± 8 µM.

Regarding `C[C@H]1CC[C@@]2(OC1)O[C@H]1C[C@H]3[C@@H]4CC[C@H]5C[C@@H](O)CC[C@]5(C)[C@H]4CC[C@]3(C)[C@H]1[C@@H]2C` [Neotigogenin (14), neotigogenin], in assay [3], the neurite outgrowth result is given as “not shared”. The “Aβ42-lowering effect (in words)” value in assay [1] (N2A-APPswe cells) is recorded as “ineffective”. Besides, in assay [1] (setting [4]), the IC50 was over 100 µM.

With `C[C@H]1CC[C@@]2(OC1)O[C@H]1C[C@H]3[C@@H]4CC[C@@H]5CC(=O)CC[C@]5(C)[C@H]4CC[C@]3(C)[C@H]1[C@@H]2C` [Sarsasapogenone (19), sarsasapogenone], in assay [1] (N2A-APPswe cells), the “Aβ42-lowering effect (in words)” value is “comparable effect to 1”. The IC50 in assay [1] (setting [4]) came to 50 ± 5 µM.

Regarding `C[C@@H]1CC[C@@]2(OC1)O[C@H]1C[C@H]3[C@@H]4CC[C@@H]5C[C@@H](O)CC[C@]5(C)[C@H]4CC[C@]3(C)[C@H]1[C@@H]2C` [Smilagenin (24), smilagenin], the neurite outgrowth result in assay [3] is recorded as “not shared”. In addition, the “Aβ42-lowering effect (in words)” value in assay [1] (N2A-APPswe cells) is “ineffective”. The IC50 in assay [1] (setting [4]) was over 100 µM.

For `C[C@@H]1CC[C@@]2(OC1)O[C@H]1C[C@H]3[C@@H]4CC[C@H]5C[C@@H](O)CC[C@]5(C)[C@H]4CC[C@]3(C)[C@H]1[C@@H]2C` [Tigogenin (13), tigogenin], the neurite outgrowth entry in assay [3] is “not shared”. Besides, the “Aβ42-lowering effect (in words)” value in assay [1] (N2A-APPswe cells) was “ineffective”. The IC50 in assay [1] (setting [4]) is over 100 µM.

As to `CO[C@]1(CC[C@H](C)CO[C@@H]2O[C@H](CO)[C@@H](O)[C@H](O)[C@H]2O)O[C@H]2C[C@H]3[C@@H]4CC[C@@H]5C[C@@H](O[C@@H]6O[C@H](CO)[C@H](O)[C@H](O)[C@H]6O[C@@H]6O[C@H](CO)[C@@H](O)[C@H](O)[C@H]6O)CC[C@]5(C)[C@H]4CC[C@]3(C)[C@H]2[C@@H]1C` [Timosaponin B I (22), Timosaponin B I], in assay [1] (N2A-APPswe cells), the “Aβ42-lowering effect (in words)” value was “ineffective”. In assay [1] (setting [4]), the IC50 was over 100 µM.

Regarding `C[C@H]1CC[C@@]2(OC1)O[C@H]1C[C@H]3[C@@H]4CC=C5C[C@@H](O)CC[C@]5(C)[C@H]4CC[C@]3(C)[C@H]1[C@@H]2C` [Yamogenin (7), yamogenin], the neurite outgrowth entry in assay [3] is on record as “not shared”. Further, the “Aβ42-lowering effect (in words)” value in assay [1] (N2A-APPswe cells) is “no effect”. In assay [1] (setting [5]), the IC50 is over 100 µM.

As for `COC1OC(CNC(=O)COC2CCC3(C)C(CCC4C3CCC3(C)C4CC4OC5(CCC(C)CO5)C(C)C43)C2)C(O)C(O)C1O` (stereo not drawn) [α-OMe SSG (32), α-OMe SSG], in assay [1] (setting [4]), the IC50 was 7.2 ± 2.2 µM.

Turning to `COC1OC(Cn2cc(COC3CCC4(C)C(CCC5C4CCC4(C)C5CC5OC6(CCC(C)CO6)C(C)C54)C3)nn2)C(O)C(O)C1O` (stereo not drawn) [α-OMe triazole SSG (28), α-OMe triazole SSG], in assay [1] (setting [4]), the IC50 stood at 6.5 ± 2.1 µM.

`COC1OC(CNC(=O)COC2CCC3(C)C(CCC4C3CCC3(C)C4CC4OC5(CCC(C)CO5)C(C)C43)C2)C(O)C(O)C1O` (stereo not drawn) [β-OMe SSG (33), β-OMe SSG]: the IC50 in assay [1] (read-out: IC50 in lowering Aβ42 production, N2A-APPswe cells) stood at 9.3 ± 3.5 µM.
